Results on 3 molecules are retold here after the NIST ThermoML archive (doi:10.1021/je200111a).

SMILES strings stand for the structures. ± gives the expanded uncertainty stated by the source.

The conditions of data set [1]: Liquid; for mass density: 298.15 K, 101.33 kPa; for vapor or sublimation pressure: Ebulliometric method (Recirculating still).
Data set [2] is described as follows: refractive index (Na D-line) (dimensionless). The note with it: 298.15 K; 101.33 kPa; Liquid; Standard Abbe refractometry.

`CCCCCO` [pentan-1-ol]: the mass density (usually the mass of a sample divided by its volume) in data set [1] was found to be 811.2 ± 0.4 kg/m3. Besides, the vapor or sublimation pressure (usually the pressure of vapour in equilibrium with the condensed phase) came to 13 ± 0.17 kPa in data set [1] (358.35 K) and 101.3 ± 1.8 kPa in data set [1] (411.05 K). In addition, the refractive index (commonly the speed of light in vacuum divided by its phase velocity in the sample) in data set [2] worked out at 1.4077 ± 0.0007.

For `CCOC(=O)[C@H](C)O` [(S)-(-)-ethyl lactate], in data set [1], the mass density worked out at 1028.6 ± 0.2 kg/m3. For the same molecule, the “vapor or sublimation pressure” value was found to be 13 ± 0.2 kPa in data set [1] (366.55 K), 13 ± 0.2 kPa in data set [1] (366.65 K), 101.3 ± 2 kPa in data set [1] (427.62 K) and 101.3 ± 2 kPa in data set [1] (427.65 K). Further, the refractive index in data set [2] is on record as 1.41057 ± 0.00072.

With `CC(C)CCO` [3-methylbutan-1-ol], the mass density in data set [1] stood at 807.6 ± 0.4 kg/m3. The “vapor or sublimation pressure” value in data set [1] (353.75 K) was found to be 13 ± 0.16 kPa; in data set [1] (403.75 K) it was 101.3 ± 1.7 kPa. In data set [2], the refractive index is reported as 1.4051 ± 0.0007.
